Assay results from US6706740B2, “Fungicidal heterocyclic aromatic amides and their compositions, methods of use and preparation” (Dow AgroSciences LLC, priority 1999, dated 2004).
Like-named read-outs stand apart in the source and are kept apart here.

Tests used:
[1] = tested on: Phytophthora infestans—PHYTIN; assay: whole plant or invertebrate; format: in vivo; details: Phytophthora, in Solanum lycopersicum, 24 h, read-out: PHYTIN in vivo 1 Day Protectant
[2] = tested on: Magnaporthe grisea (Pyricularia oryzae—PYRIOR); assay: microbe, parasite or virus in culture; format: cell-based; details: Pyricularia oryzae, read-out: PYRIOR in vitro Growth Inhibition
[3] = tested on: Rhizoctonia solani (RHIZSO); assay: microbe, parasite or virus in culture; format: cell-based; details: Rhizoctonia solani, read-out: RHIZSO in vitro Growth Inhibition
Ustilago maydis (USTIMA) = assay: microbe, parasite or virus in culture; format: cell-based; details: Mycosarcoma maydis, read-out: USTIMA in vitro Growth Inhibition
[4] = tested on: Puccinia recondita—PUCCRT; assay: Brown Rust of Wheat, in vivo whole plant, 24 Hour Protectant; details: control of fungal infection vs untreated plants; for pest or weed control at 100 ppm: Puccinia, read-out: PUCCRT in vivo 1 Day Protectant
Septoria tritici—SEPTTR = assay: Leaf Blotch of Wheat, in vivo whole plant, 24 Hour Protectant; details: Zymoseptoria tritici, 24 h, control of fungal infection vs untreated plants, read-out: SEPTTR in vivo 1 Day Protectant
[5] = tested on: Mycosphaerella graminicola (Septoria tritici—SEPTTR); assay: In vitro fungal growth inhibition, Mycosphaerella graminicola (SEPTTR); format: cell-based; details: Zymoseptoria tritici, read-out: SEPTTR in vitro Growth Inhibition
[6] = tested on: Leptosphaeria nodorum—LEPTNO; assay: Glume Blotch of Wheat, in vivo whole plant, 24 Hour Protectant; details: control of fungal infection vs untreated plants; for pest or weed control at 100 ppm: Leptosphaeria, read-out: LEPTNO in vivo 1 Day Protectant
[7] = tested on: Phytophthora infestans (PHYTIN); assay: microbe, parasite or virus in culture; format: cell-based; details: Phytophthora infestans, read-out: PHYTIN in vitro Growth Inhibition
Erysiphe graminis—ERYSGT = assay: Powdery Mildew of Wheat, in vivo whole plant, 24 Hour Protectant; details: Erysiphe, control of fungal infection vs untreated plants, read-out: ERYSGT in vivo 1 Day Protectant
[8] = tested on: Stagonospora nodorum (Leptosphaeria nodorum—LEPTNO); assay: In vitro fungal growth inhibition, Stagonospora nodorum (LEPTNO); format: cell-based; details: Leptosphaeria, read-out: LEPTNO in vitro Growth Inhibition
[9] = 100 ppm spray, 24 hour protectant, wheat
[10] = wheat plants sprayed at 100 ppm, inoculated after 24 hours
[11] = 100 ppm spray, wheat, 24 hour protectant

| SMILES | pest or weed control at 100 ppm [1] | inhibition at 25 ppm [2] | inhibition at 25 ppm [3] | inhibition at 25 ppm (Ustilago maydis (USTIMA)) | pest or weed control at 100 ppm (Septoria tritici—SEPTTR; [9]) | inhibition at 25 ppm ([5]; 25 ppm in growth medium) | inhibition at 25 ppm [7] | pest or weed control at 100 ppm (Erysiphe graminis—ERYSGT; [9]) | inhibition at 25 ppm ([8]; 25 ppm in growth medium) | pest or weed control at 100 ppm [4, 10] | pest or weed control at 100 ppm (Septoria tritici—SEPTTR; [10]) | inhibition at 25 ppm ([5]; 25 ppm in the growth medium) | pest or weed control at 100 ppm [6, 10] | pest or weed control at 100 ppm (Erysiphe graminis—ERYSGT; [10]) | inhibition at 25 ppm ([8]; 25 ppm in the growth medium) | pest or weed control at 100 ppm [4, 11] | pest or weed control at 100 ppm (Septoria tritici—SEPTTR; [11]) | pest or weed control at 100 ppm (Erysiphe graminis—ERYSGT; [11]) | other results |
| --- | --- | --- | --- | --- | --- | --- | --- | --- | --- | --- | --- | --- | --- | --- | --- | --- | --- | --- | --- |
| COc1ccnc(C(=O)NC2CCCC(Sc3ccc(C(F)(F)F)cn3)C2)c1O (centres unmarked) [Compound 274] | < 25% | > 80% | > 80% | < 80% | 25 to 74% | > 80% | > 80% | < 25% | > 80% |  |  |  |  |  |  |  |  |  | PUCCRT in vivo 1 Day Protectant [4, 9]: + +; LEPTNO in vivo 1 Day Protectant [6, 9]: + + |
| CC(NC(=O)c1nc(Br)ccc1O)c1ccc(Oc2ccccc2)cc1 (centres unmarked) [Compound 490] | < 25% | < 80% | < 80% | < 80% |  |  | < 80% |  |  | 25 to 74% | 25 to 74% | < 80% | < 25% | < 25% | < 80% |  |  |  |  |
| COc1ccnc(C(=O)NC2CC(C)(C)C(=O)C(C)(C)C2)c1O [Compound 266] | < 25% | < 80% | < 80% | < 80% | 25 to 74% | < 80% | < 80% | < 25% | < 80% |  |  |  |  |  |  |  |  |  | pest or weed control at 100 ppm [4, 9]: < 25%; pest or weed control at 100 ppm [6, 9]: 25 to 74% |
| O=C(Nc1ccc(Oc2ccc(C(F)(F)F)cc2)cc1)c1nc(Br)ccc1O [Compound 499] | < 25% | < 80% | < 80% | < 80% |  |  | < 80% |  |  | 25 to 74% | < 25% | < 80% | 25 to 74% | < 25% | < 80% |  |  |  |  |
| COc1ccnc(C(=O)Nc2ccc(Oc3ccccc3C)cc2)c1O [Compound 415] | < 25% | < 80% | < 80% | < 80% |  | > 80% | < 80% |  | < 80% |  |  |  |  |  |  | 25 to 74% | < 25% | 25 to 74% | pest or weed control at 100 ppm [6, 11]: < 25% |
| COc1ccnc(C(=O)NC(COC(=O)C(Cc2ccccc2)C(C)OC(=O)C(C)C)C(=O)OC(C)C)c1OC(C)=O (centres unmarked) [Compound 589] | < 25% | < 80% | < 80% | < 80% |  |  | < 80% |  |  | 25 to 74% | 25 to 74% | < 80% | < 25% | < 25% | < 80% |  |  |  |  |
| COc1ccnc(C(=O)NCC2COCCOCCOCCOCCO2)c1O (centres unmarked) [Compound 245] | < 25% | < 80% | < 80% | < 80% | 25 to 74% | < 80% | < 80% | < 25% | < 80% |  |  |  |  |  |  |  |  |  | pest or weed control at 100 ppm [4, 9]: < 25%; pest or weed control at 100 ppm [6, 9]: 25 to 74% |
| COc1ccnc(C(=O)NC2CC(C)(C)C=C[C@@H](C)[C@@H]2C)c1OC(C)=O (some centres unmarked) [Compound 578] | < 25% | < 80% | < 80% | < 80% |  |  | < 80% |  |  | < 25% | 25 to 74% | < 80% | 25 to 74% | < 25% | < 80% |  |  |  |  |
| COc1ccnc(C(=O)Nc2ccccc2Oc2cccc(Cl)c2)c1O [Compound 437] | 25 to 74% | < 80% | < 80% | < 80% |  | > 80% | < 80% |  | < 80% |  |  |  |  |  |  | < 25% | < 25% | < 25% | pest or weed control at 100 ppm [6, 11]: < 25% |
| CC(C)C(=O)O[C@H]1[C@H](C)OC(=O)[C@@H](NC(=O)c2nnc(O)nc2O)COC(=O)[C@@H]1Cc1ccccc1 [Compound 544] | < 25% | < 80% | < 80% | < 80% |  |  | < 80% |  |  | 25 to 74% | 25 to 74% | < 80% | 25 to 74% | < 25% | < 80% |  |  |  |  |
| COc1ccnc(C(=O)NC2C3(C)CCC(C3)C2(C)C)c1O (centres unmarked) [Compound 288] | < 25% | < 80% | > 80% | < 80% | 25 to 74% | < 80% | < 80% | < 25% | < 80% |  |  |  |  |  |  |  |  |  | pest or weed control at 100 ppm [4, 9]: < 25%; pest or weed control at 100 ppm [6, 9]: 25 to 74% |
| COc1ccnc(C(=O)N[C@H]2[C@@H](OC(C)=O)O[C@H](COC(C)=O)[C@@H](OC(C)=O)[C@@H]2OC(C)=O)c1O [Compound 335] | 25 to 74% | < 80% | < 80% | < 80% |  | < 80% | < 80% |  | < 80% |  |  |  |  |  |  | < 25% | < 25% | < 25% | pest or weed control at 100 ppm [6, 11]: 25 to 74% |
| CCCO[C@@H]1[C@@H](OCCC)[C@H](OCCC)CO[C@H]1NC(=O)c1nccc(OC)c1O [Compound 331] | < 25% | > 80% | < 80% | < 80% |  | < 80% | < 80% |  | < 80% |  |  |  |  |  |  | < 25% | < 25% | < 25% | pest or weed control at 100 ppm [6, 11]: 25 to 74% |
| COC(=O)C(COC(=O)C(COC(=O)C(C)C)Cc1ccccc1)NC(=O)c1nccc(OC)c1OC(C)=O (centres unmarked) [Compound 587] | < 25% | < 80% | < 80% | < 80% |  |  | < 80% |  |  | 25 to 74% | 25 to 74% | < 80% | 25 to 74% | < 25% | < 80% |  |  |  |  |
| COc1ccnc(C(=O)N[C@H]2CO[C@@](C)(C(C)CC3=C(C)CCCC3(C)C)OC2)c1O (some centres unmarked) [Compound 318] | 25 to 74% | < 80% | > 80% | < 80% | 25 to 74% | > 80% | > 80% | < 25% | > 80% |  |  |  |  |  |  |  |  |  | pest or weed control at 100 ppm [4, 9]: 25 to 74%; pest or weed control at 100 ppm [6, 9]: 25 to 74% |
| COc1ccnc(C(=O)N[C@@H](Cc2ccc(OCc3ccccc3)cc2)C(=O)O)c1O [Compound 337] | < 25% | < 80% | < 80% | < 80% |  | < 80% | < 80% |  | < 80% |  |  |  |  |  |  | 25 to 74% | < 25% | < 25% | LEPTNO in vivo 1 Day Protectant [6, 11]: + + |
